Biological target: T1, Corticotropin-releasing factor receptor 1 (Homo sapiens, UniProt P34998)
T1 sequence (P34998 whole entry): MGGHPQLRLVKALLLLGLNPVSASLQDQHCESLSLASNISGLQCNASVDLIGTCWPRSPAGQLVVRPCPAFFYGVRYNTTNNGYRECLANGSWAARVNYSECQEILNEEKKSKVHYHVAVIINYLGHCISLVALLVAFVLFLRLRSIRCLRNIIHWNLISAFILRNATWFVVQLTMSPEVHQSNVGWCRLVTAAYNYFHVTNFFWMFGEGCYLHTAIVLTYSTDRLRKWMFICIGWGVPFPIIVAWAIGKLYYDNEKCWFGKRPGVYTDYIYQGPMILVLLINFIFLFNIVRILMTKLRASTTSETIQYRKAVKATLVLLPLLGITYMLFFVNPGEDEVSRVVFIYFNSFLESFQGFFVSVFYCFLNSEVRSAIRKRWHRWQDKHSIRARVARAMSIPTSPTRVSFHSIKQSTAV
Assay: Binding Assay: A binding competition experiment with CRF was conducted by the SPA (GE Healthcare) method using a 96-well plate.

IC50: 74 nM
SMILES: CCCN(c1c(OC)nn2c(-c3c(OC)cc(Cl)cc3OC)csc12)C1CCOCC1

Source: ChEMBL document CHEMBL3639059, “Pyrazolothiazole compound” (2013)
